Assay [1] concerns the target wt Cb H-NOX. In kind it is binding.
The subject of assay [2] is wt Tt H-NOX. It is filed as binding.
The test system of assay [3] is wt Tt H-NOX. The settings on record: cited from earlier work.
The subject of assay [4] is wt Cb H-NOX. Conditions: cited from earlier work.
The subject of assay [5] is 6c NO-heme-His complex in wt Cb H-NOX. In kind it is binding, Clostridium botulinum.
The next assay relates to sGC. The settings on record: cited from earlier work.

pKd: −log10 of the molar value. Several values for one entry are separate records, joined by “and”; a condition that tells them apart may be missing. Equal entries are not always repeated. Where two headings read alike, the source gives them in different places.

The source of these data is article PMC8344375 (Biochemistry, 2015).

Regarding `O=O` [O2, oxygen], the negative logarithm of the Kd (pKd) at wt Cb H-NOX [1] (read-out: KD (O2)) is 4.28; on wt Tt H-NOX [2] (read-out: KD (O2)), 7.36; on wt Tt H-NOX [3] (read-out: KD (O2)) it was 7.32 and 7.05. Further, the “koff (O2)” value in the assay with wt Tt H-NOX [2] was 1.9 s⁻¹; with wt Tt H-NOX [3] it was 1.2^f s^−1 and 1.2^e s^−1. For the same compound, the “kon (O2)” value in the assay on wt Tt H-NOX [2] is 4.3e+07 M⁻¹ s⁻¹; in the assay with wt Tt H-NOX [3], 2.5 × 10^7f M^−1 s^−1 and 1.36 × 10^7e M^−1 s^−1.
For the compound `[C-]#[O+]` [CO, Carbon monoxide], the “koff (CO)” value in the assay with wt Cb H-NOX [1] is 1.0 s⁻¹; in the assay on wt Tt H-NOX [2] it was 0.5 s⁻¹; with wt Tt H-NOX [3], 3.56^g s^−1. Further, the “kon (CO)” value in the assay on wt Cb H-NOX [1] is 1.5e+06 M⁻¹ s⁻¹; with wt Tt H-NOX [2], 3.3e+06 M⁻¹ s⁻¹; in the assay with wt Cb H-NOX [4], 1.5 × 10^6d M^−1 s^−1; in the assay with wt Tt H-NOX [3], 4.1e+06 g/M/s and 2.18e+06 g/M/s. In addition, the results for the pKd on wt Cb H-NOX [1] (read-out: KD (CO)) and at wt Tt H-NOX [2] (read-out: KD (CO)) were 6.17 and 6.80, respectively.
nitric oxide [NO]: in the assay on wt Cb H-NOX [1], the “NO dissociation rate, fast phase” value was found to be 0.011 s⁻¹. Also, the “koff (NO)” value in the assay on wt Cb H-NOX [1] is 0.012 s⁻¹; in the assay on wt Tt H-NOX [2], 0.0034 s⁻¹; with wt Cb H-NOX [4], 3 × 10^−6c s^−1; in the assay with wt Tt H-NOX [3], 0.00056 s⁻¹. Moreover, the “koff of 5c NO-heme complex” value with wt Cb H-NOX [1] is 1.1 × 10^−3a s^−1. Also, the entries for the “kon (NO)” value with wt Cb H-NOX [1], in the assay on wt Tt H-NOX [2] and in the assay with wt Cb H-NOX [4] were 1.5e+08 M⁻¹ s⁻¹, 1.5e+08 M⁻¹ s⁻¹ and ~ 10^8c M^−1 s^−1, respectively. In addition, the pKd on wt Cb H-NOX [1] (read-out: KD (NO)) was 10.10; on wt Tt H-NOX [2] (read-out: KD (NO)) it was 10.64; in assay [5] (read-out: KD (reaction I, NO binding to 6c NO-heme-His)), ~3.24; in assay [5] (read-out: KD of reaction I) it was 2.96; at sGC (read-out: KD(NO)(6c)), 7.27. Also, in assay [5], the “k2 (quaternary complex to 5c NO-heme)” value is given as ~ 790 s^−1. The “koff for 5c NO-heme” value in the assay on sGC was 0.0006 s⁻¹. Besides, the “koff(NO) of 6c NO-sGC complex” value in the assay on sGC was 27 s⁻¹.

By pKd is commonly meant −log10 of the Kd, conventionally taken in molar units.
